The record followed here is the NIST ThermoML archive (doi:10.1016/j.fluid.2011.04.017).

Numbers after ± are expanded uncertainties.

The conditions of the data set: 101.33 kPa, Liquid, Vibrating tube method.

For the compound `CCCCn1cc[n+](C)c1.F[P-](F)(F)(F)(F)F` [1-butyl-3-methylimidazolium hexafluorophosphate], the mass density (298.1 K) is given as 1366.38 ± 1.7 kg/m3.
With `CCCCCCCCCn1cc[n+](C)c1.F[P-](F)(F)(F)(F)F` [1-nonyl-3-methylimidazolium hexafluorophosphate], the mass density is, setting by setting: (293.15 K) 1198.32 ± 0.2 kg/m3; (298.15 K) 1194.34 ± 0.19 kg/m3.

The mass density is mass per unit of volume.
